Laboratory results taken from ChEMBL document CHEMBL1201862, “PubChem BioAssay data set” (2004).
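Protocol summary: plate cells (96-well), add compound at 5 concentrations, incubate 48 h, interpolate endpoints linearly. Here, GI50 denotes the concentration required for 50% inhibition of growth.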 Active and inactive are the calls of the source. Cut-off read from the data, not from the text of the source: active = GI50 up to about 1.1 µM and inactive = higher.

What was measured:
Test in all cases: growth of human tumour cells (NCI), 48 h
NCI-H460 = tested on: NCI-H460
IGROV-1 = tested on: IGROV-1
HCT-116 = tested on: HCT-116
HL-60 = tested on: HL-60
KM12 = tested on: KM12
786-0 = tested on: 786-0
SNB-19 = tested on: SNB-19
K562 = tested on: K562
SN12C = tested on: SN12C
MOLT-4 = tested on: MOLT-4
DU-145 = tested on: DU-145
HCC 2998 = tested on: HCC 2998
MCF7 = tested on: MCF7
RPMI-8226 = tested on: RPMI-8226
UO-31 = tested on: UO-31
SNB-75 = tested on: SNB-75
TK-10 = tested on: TK-10
LOX IMVI = tested on: LOX IMVI
SK-OV-3 = tested on: SK-OV-3

Compound	GI50 (NCI-H460)	GI50 (IGROV-1)	GI50 (HCT-116)	GI50 (HL-60)	GI50 (KM12)	GI50 (786-0)	GI50 (SNB-19)	GI50 (K562)	GI50 (SN12C)	GI50 (MOLT-4)	GI50 (DU-145)	GI50 (HCC 2998)	GI50 (MCF7)	GI50 (RPMI-8226)	GI50 (UO-31)	GI50 (SNB-75)	GI50 (TK-10)	GI50 (LOX IMVI)	GI50 (SK-OV-3)
COC(=O)C1(C(=O)OC)N=C(C)OC1c1ccccn1 (centres undefined)	> 100 µM (inactive)	> 100 µM (inactive)	> 100 µM (inactive)	> 100 µM (inactive)	> 100 µM (inactive)	> 100 µM (inactive)	> 100 µM (inactive)	> 100 µM (inactive)	> 100 µM (inactive)	> 100 µM (inactive)	> 100 µM (inactive)	> 100 µM (inactive)	> 100 µM (inactive)	> 100 µM (inactive)	> 100 µM (inactive)	> 100 µM (inactive)	> 100 µM (inactive)	> 100 µM (inactive)	> 100 µM (inactive)
O=C(O)c1c2c(cc3c1CC(Cc1ccccc1)C3=O)CCC2 (centres undefined)	74.8 µM (inactive)	> 100 µM (inactive)	89.9 µM (inactive)	22.4 µM (inactive)	65.8 µM (inactive)	> 100 µM (inactive)	> 100 µM (inactive)	75.2 µM (inactive)	> 100 µM (inactive)	96.8 µM (inactive)	> 100 µM (inactive)	> 100 µM (inactive)	> 100 µM (inactive)	39.7 µM (inactive)	16.6 µM (inactive)	> 100 µM (inactive)	> 100 µM (inactive)	26 µM (inactive)	> 100 µM (inactive)
NC(=O)NC(=O)c1ccc(NC(=O)CBr)cc1	4.66 µM (inactive)	2.03 µM (inactive)	0.83 µM (active)	1.54 µM (inactive)	4 µM (inactive)	0.278 µM (active)	21.9 µM (inactive)	0.705 µM (active)	0.561 µM (active)	0.241 µM (active)	2.44 µM (inactive)	12.8 µM (inactive)	1.76 µM (inactive)	1.1 µM (active)	1.42 µM (inactive)	1.81 µM (inactive)	1.31 µM (inactive)	0.558 µM (active)	3.27 µM (inactive)
Cn1c2ccccc2c(=NNc2cccc(C(=O)O)c2)c2ccccc21	4.86 µM (inactive)	17.8 µM (inactive)	4.89 µM (inactive)	11.3 µM (inactive)	23.3 µM (inactive)	9.79 µM (inactive)	6.84 µM (inactive)	3.37 µM (inactive)	6.55 µM (inactive)	3.97 µM (inactive)	11.9 µM (inactive)	3.3 µM (inactive)	3.4 µM (inactive)	5.96 µM (inactive)	14.3 µM (inactive)	23.9 µM (inactive)	15.5 µM (inactive)	5.05 µM (inactive)	14.8 µM (inactive)
NC(=O)NCCCC(NC(=O)OCCCCCCn1ccc(=O)[nH]c1=O)C(=O)O (centres undefined)	> 100 µM (inactive)	> 100 µM (inactive)	> 100 µM (inactive)	> 100 µM (inactive)	> 100 µM (inactive)	> 100 µM (inactive)	> 100 µM (inactive)	> 100 µM (inactive)	50.2 µM (inactive)	> 100 µM (inactive)	> 100 µM (inactive)	> 100 µM (inactive)	> 100 µM (inactive)	34.5 µM (inactive)	> 100 µM (inactive)	> 100 µM (inactive)	> 100 µM (inactive)	> 100 µM (inactive)	> 100 µM (inactive)
O=C1Nc2ccccc2/C1=C1/Nc2ccccc2/C1=N/OCCOCCO	1.21 µM (inactive)	0.0836 µM (active)	0.582 µM (active)	2.11 µM (inactive)	0.0423 µM (active)	2.48 µM (inactive)	6.52 µM (inactive)	5 µM (inactive)	2.69 µM (inactive)	2.96 µM (inactive)	1.39 µM (inactive)	2.76 µM (inactive)	1.99 µM (inactive)	3.47 µM (inactive)	0.662 µM (active)	2.35 µM (inactive)	1.86 µM (inactive)	0.869 µM (active)	0.361 µM (active)
